Drawing on patent publication US10961234B2, “Oxazole derivatives for use in the treatment of cancer” (LIFEARC, priority 2016, dated 2021), this text covers IC50 and EC50 for 19 compounds.

The IC50 is the concentration that inhibits the measured activity by half. The EC50 is the concentration giving half of the maximal effect. Read a low EC50 as an effect from little substance.

Structures are written as SMILES.

In one assay the target is T1, WT full length PAICS (Homo sapiens, UniProt P22234).
T1 construct: 5 μl WT full length PAICS (final assay concentration, fac, 2.5 nM) in basic buffer
T1 sequence (P22234 1-425): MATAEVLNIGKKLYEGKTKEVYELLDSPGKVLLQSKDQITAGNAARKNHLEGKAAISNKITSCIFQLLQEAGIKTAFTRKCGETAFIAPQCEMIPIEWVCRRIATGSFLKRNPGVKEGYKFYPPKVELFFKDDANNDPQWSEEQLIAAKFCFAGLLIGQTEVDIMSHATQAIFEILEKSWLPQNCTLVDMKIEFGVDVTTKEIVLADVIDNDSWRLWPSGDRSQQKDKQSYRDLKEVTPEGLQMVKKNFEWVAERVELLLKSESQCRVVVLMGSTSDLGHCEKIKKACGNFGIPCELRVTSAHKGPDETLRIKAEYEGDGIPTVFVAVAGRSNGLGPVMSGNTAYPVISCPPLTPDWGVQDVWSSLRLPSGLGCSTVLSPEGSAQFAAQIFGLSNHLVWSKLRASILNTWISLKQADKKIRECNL
The assay is described as follows: Biochemical assay to measure PAICS activity (Transcreener ADP2 FI, SAICAR synthetase reaction). The settings on record: PAICS 2.5 nM, 30 mins pre-incubation, ADP detection by fluorescence intensity. The text has this: The biochemical assay was used to measure PAICS SAICAR synthetase-mediated conversion of CAIR, aspartic acid and ATP to SAICAR, ADP and inorganic phosphate (PI), post-AIR/CAIR equilibration (see FIG. 3). This was achieved by detecting the ADP generated during the reaction, using Bellbrook Lab's Transcreener ADP^2 FI assay. An increase in the fluorescence intensity is directly proportional to the amount of PAICS activity.
The Transcreener ADP^2 FI assay is a homogeneous competitive displacement fluorescence intensity assay which uses direct immunodetection of ADP. Displacement of the tracer by ADP causes an increase in the fluorescence at excitation 590 nm and emission 617 nm (FIG. 3).
5 μl WT full length PAICS (final assay concentration, fac, 2.5 nM) in basic buffer, added to black, non-binding, 384-well plates (Corning #3575), columns 1 to 22.5 μl basic buffer was added to columns 23+24 (negative control). PAICS stock at 31.9 μM from the PI's lab (Steve Firestine). Basic buffer contained 50 mM Tris-HCl pH8 and 0.5 mM EDTA, fac.
1 μl compound in 100% DMSO added per well, or 1 μl 100% DMSO to positive controls (columns 1+2) and negative controls (columns 23+24). Final assay top concentration of compound either 1 mM or 30 μM, serially diluted with half-log dilutions across the plate in duplicate (one 10-point concentration response curve across wells 3 to 12, another across 13 to 22). Compounds pre-incubated with PAICS enzyme for 30 mins at RT.
2 μl CAIR added (fac 10 μM) in basic buffer plus 25 mM MgCl2 and 50 mM KHCO3 fac to all wells. CAIR stock 50 mM from Steve Firestine's lab. 1 hr RT incubation for AIR-CAIR equilibration. NB: ˜50% CAIR is decarboxylated during equilibration therefore 5 μM remains for the synthetase reaction.
2 μl ATP/aspartic acid added (fac 30 μM/180 μM) in reaction buffer to all wells. 30 mins RT incubation for appropriate level of ATP turnover. Reaction buffer contained basic buffer plus 10 mM DTT, 0.01% BSA and 0.01% Brij 35, fac.
10 μl ADP detection reagent added to all wells (as per instructions, Transcreener ADP^2 FI kit, BellBrook Labs #3013-10K). Incubation for 1 h at RT to allow antibody equilibration. Fluorescence intensity determined using a Tecan Safire2 (excitation at 590 nm, emission at 617 nm).

The test system of assay [1] is LM2 and MDA-MB-231 breast cancer cell lines. Nature of the assay: PAICS 2D cell proliferation assay. It counts as cell-based. The conditions noted are these: Homo sapiens; 72 hours incubation; cell line (LM2 or MDA-MB-231) not given. The method, then:
Frozen cryovial stocks of LM2 and MDA-MB-231 breast cancer cell lines were thawed and cultured in 4.5 g/L glucose DMEM (31966-047, Invitrogen) supplemented with 10% Fetal Bovine Serum (10500-064, Invitrogen) until confluent in a T175 flask. Cells were incubated at 37° C. with 5% CO2 in a humidified incubator.
Cells were collected from T175 flasks by washing with PBS (10010-056, Invitrogen) and dissociated using Accutase (A6964, Sigma Aldrich). This was followed by centrifuging (1200 rpm, 5 min) and resuspending the cells in 10 ml of media containing 1% penicillin/streptomycin (15140-122, Invitrogen). Cells were counted by trypan blue exclusion method using an automated cell counter (Cellometer) and diluted to a concentration of 40,000/ml. 1000 cells were then seeded into 384-well white-walled plates (Corning, 3707) in a volume of 25 μl. Plates were incubated overnight at 37° C. with 5% CO2.
After 24 hours, PAICS compounds were added onto the assay plates using an HP D300 Digital Dispenser (Hewlett Packard). 10 mM stocks were used and dispensed as a 10 point concentration response curve (CRC) ½ log dilution series with a final top concentration of 100 μM. Controls were added onto each plate: positive controls included Staurosporine CRC (100 μM stock dispensed as a 10 point CRC ½ log dilution series with a final top concentration of 1 μM) and PAICS compound MRT00211919 (10 mM stock dispensed as a 10 point CRC ½ log dilution series with a final top concentration of 100 μM); a high control of Staurosporine (0.1 μM (LM2), 0.316 μM (MDA-MB-231) FAC) and a low control of media containing 1% DMSO. A final concentration of 1% DMSO was then added across the plates for normalisation. Following compound addition, assay plates were incubated for 72 hours at 37° C. with 5% CO2.
After 72 h incubation, dead and viable cells were measured in each assay plate. Cytotoxicity was assessed through fluorescent DNA staining using the CellTox™ Green Cytotoxicity Assay kit (G8743, Promega) following the manufacturer's multiplexing protocol. Impaired cell membrane integrity results in the access of dye to stain DNA allowing quantification of dead cells. Cell viability was determined following ATP quantification using the CellTiter-Glo® Luminescent Cell Viability Assay kit (G7572, Promega) following the manufacturer's protocol. ATP released from lysed cells allowed for the generation of a signal proportional to the number of cells present in the well. All endpoint reads were performed using the PheraSTAR Plus (BMG Labtech). Data is expressed as % viable cells and % dead cells against controls (mean±SEM of duplicate curves).

`Nc1nc(C(=O)Nc2cc(-c3cnc(OC4CCNCC4)s3)ccc2Cl)co1` [Example 87, 2-Amino-N-{2-chloro-5-[2-(piperidin-4-yloxy)-1,3-thiazol-5-yl]phenyl}-1,3-oxazole-4-carboxamide] returned an IC50 on WT full length PAICS of less than 10 nM. The EC50 in assay [1] is less than 100 nM.
On the same counts, the results for `CNC1CCC(n2cc(-c3ccc(Cl)c(NC(=O)c4coc(N)n4)c3)cn2)CC1` (mixture of isomers) [Example 80, 2-Amino-N-(2-chloro-5-{1-[4-(methylamino)cyclohexyl]-1H-pyrazol-4-yl}phenyl)-1,3-oxazole-4-carboxamide] are less than 10 nM and less than 100 nM.
The matching figures for `Nc1nc(C(=O)Nc2cc(-c3ccc(OC4CCNCC4)nc3)ccc2Cl)co1` [Example 84, 2-Amino-N-{2-chloro-5-[6-(piperidin-4-yloxy)pyridin-3-yl]phenyl}-1,3-oxazole-4-carboxamide]: 10 to 25 nM and 250 to 500 nM.
In turn, `Nc1nc(C(=O)Nc2cc(-c3cnc(OC4CCNCC4)nc3)ccc2Cl)co1` [Example 82, 2-Amino-N-{2-chloro-5-[2-(piperidin-4-yloxy)pyrimidin-5-yl]phenyl}-1,3-oxazole-4-carboxamide] had an IC50 at WT full length PAICS of 10 to 25 nM. The compound further yielded an EC50 in assay [1] of 250 to 500 nM.
In turn, `CN(C)C1CCN(Cc2csc(-c3ccc(Cl)c(NC(=O)c4coc(N)n4)c3)n2)CC1` [Example 97, 2-Amino-N-[2-chloro-5-(4-{[4-(dimethylamino)piperidin-1-yl]methyl}-1,3-thiazol-2-yl)phenyl]-1,3-oxazole-4-carboxamide] showed a 50% effective concentration (EC50) in assay [1] of 100 to 250 nM.
The compound `CN(C)CCOc1ncc(-c2ccc(Cl)c(NC(=O)c3coc(N)n3)c2)cn1` [Example 74, 2-Amino-N-(2-chloro-5-(2-(2-(dimethylamino)ethoxy)pyrimidin-5-yl)phenyl)oxazole-4-carboxamide] registered an IC50 against WT full length PAICS of 25 to 100 nM. In assay [1], this compound yielded an EC50 of 250 to 500 nM.
The matching figures for `CN(C)CCC(=O)N1CCC(n2cc(-c3ccc(Cl)c(NC(=O)c4coc(N)n4)c3)cn2)CC1` [Example 63, 2-Amino-N-(2-chloro-5-{1-[1-(N,N-dimethyl-beta-alanyl)piperidin-4-yl]-1H-pyrazol-4-yl}phenyl)-1,3-oxazole-4-carboxamide]: more than 100 nM and 250 to 500 nM.
`CN1CCC(n2cc(-c3ccc(Cl)c(NC(=O)c4coc(N)n4)c3)cn2)CC1` [Example 44, 2-Amino-N-{2-chloro-5-[1-(1-methylpiperidin-4-yl)-1H-pyrazol-4-yl]phenyl}-1,3-oxazole-4-carboxamide] displayed an IC50 at WT full length PAICS of more than 100 nM. Besides, the EC50 in assay [1] is 100 to 250 nM.
On the same counts, the results for `CN(C)CCCOc1ccc(-c2ccc(Cl)c(NC(=O)c3coc(N)n3)c2)nc1` [Example 93, 2-Amino-N-(2-chloro-5-{5-[3-(dimethylamino)propoxy]pyridin-2-yl}phenyl)-1,3-oxazole-4-carboxamide] are 25 to 100 nM and 250 to 500 nM.
At WT full length PAICS, `CN(C)CCCn1cc(-c2ccc(Cl)c(NC(=O)c3coc(N)n3)c2)cn1` [Example 43, 2-Amino-N-(2-chloro-5-{1-[3-(dimethylamino)propyl]-1H-pyrazol-4-yl}phenyl)-1,3-oxazole-4-carboxamide] displayed an IC50 of 25 to 100 nM. Also, the EC50 in assay [1] lay in the range of 100 to 250 nM.
With `CNC1CCCN(Cc2ncc(-c3ccc(Cl)c(NC(=O)c4coc(N)n4)c3)s2)C1` (stereo not shown) [Example 95, 2-Amino-N-[2-chloro-5-(2-{[3-(methylamino)piperidin-1-yl]methyl}-1,3-thiazol-5-yl)phenyl]-1,3-oxazole-4-carboxamide], the IC50 against WT full length PAICS was less than 10 nM. Moreover, the EC50 in assay [1] is 100 to 250 nM.
The matching figures for `Nc1nc(C(=O)Nc2cc(-c3cnn(C4CCNC4)c3)ccc2Cl)co1` (stereo not shown) [Example 41, 2-Amino-N-{2-chloro-5-[1-(pyrrolidin-3-yl)-1H-pyrazol-4-yl]phenyl}-1,3-oxazole-4-carboxamide]: 25 to 100 nM and 100 to 250 nM.
In turn, `CN1CC(n2cc(-c3ccc(Cl)c(NC(=O)c4coc(N)n4)c3)cn2)C1` [Example 45, 2-Amino-N-{2-chloro-5-[1-(1-methylazetidin-3-yl)-1H-pyrazol-4-yl]phenyl}-1,3-oxazole-4-carboxamide] displayed an IC50 at WT full length PAICS of more than 100 nM. The same compound had an EC50 in assay [1] of 100 to 250 nM.
In turn, `CN1CCN(c2ncc(-c3ccc(Cl)c(NC(=O)c4coc(N)n4)c3)s2)CC1` [Example 101, 2-Amino-N-{2-chloro-5-[2-(4-methylpiperazin-1-yl)-1,3-thiazol-5-yl]phenyl}-1,3-oxazole-4-carboxamide] showed an EC50 in assay [1] of 100 to 250 nM.
In assay [1], `CNC1CCCN(Cc2csc(-c3ccc(Cl)c(NC(=O)c4coc(N)n4)c3)n2)C1` (stereo not shown) [Example 96, 2-Amino-N-[2-chloro-5-(4-{[3-(methylamino)piperidin-1-yl]methyl}-1,3-thiazol-2-yl)phenyl]-1,3-oxazole-4-carboxamide] showed an EC50 of less than 100 nM.
`CN(C)CCCc1ncc(-c2ccc(Cl)c(NC(=O)c3coc(N)n3)c2)s1` [Example 85, 2-Amino-N-(2-chloro-5-{2-[3-(dimethylamino)propyl]-1,3-thiazol-5-yl}phenyl)-1,3-oxazole-4-carboxamide] returned an EC50 in assay [1] of less than 100 nM.
Compound `CSc1ccc(-c2cnc(OCCCN(C)C)s2)cc1NC(=O)c1coc(N)n1` [Example 99, 2-Amino-N-[5-{2-[3-(dimethylamino)propoxy]-1,3-thiazol-5-yl}-2-(methylsulfanyl)phenyl]-1,3-oxazole-4-carboxamide] yielded an EC50 in assay [1] of 100 to 250 nM.
On to `CSc1ccc(-c2nc(CN3CCNCC3)cs2)cc1NC(=O)c1coc(N)n1` [Example 100, 2-Amino-N-{2-(methylsulfanyl)-5-[4-(piperazin-1-ylmethyl)-1,3-thiazol-2-yl]phenyl}-1,3-oxazole-4-carboxamide], for which the EC50 in assay [1] is less than 100 nM.
On to `CCN(CC)CCCOc1ncc(-c2ccc(Cl)c(NC(=O)c3coc(N)n3)c2)s1` [Example 98, 2-Amino-N-(2-chloro-5-{2-[3-(diethylamino)propoxy]-1,3-thiazol-5-yl}phenyl)-1,3-oxazole-4-carboxamide], for which the EC50 in assay [1] is less than 100 nM.
